Measured values published in PMC6750840 (Journal of Medicinal Chemistry, 2019).
Each block holds one molecule with its values, some of them ahead of it.

How the values were obtained:
[1] = after administration; cited from earlier work
[2] = tested on: histamine-induced flare response; conditions: after oral administration; cited from earlier work
human H1R = human H1R (Homo sapiens, UniProt P35367); assay: Binding rate constants of [3H]levocetirizine; conditions: four concentrations (1–35 nM), 360 min, 37 °C
H1R = conditions: cited from earlier work

Sequence of human H1R (P35367 whole entry): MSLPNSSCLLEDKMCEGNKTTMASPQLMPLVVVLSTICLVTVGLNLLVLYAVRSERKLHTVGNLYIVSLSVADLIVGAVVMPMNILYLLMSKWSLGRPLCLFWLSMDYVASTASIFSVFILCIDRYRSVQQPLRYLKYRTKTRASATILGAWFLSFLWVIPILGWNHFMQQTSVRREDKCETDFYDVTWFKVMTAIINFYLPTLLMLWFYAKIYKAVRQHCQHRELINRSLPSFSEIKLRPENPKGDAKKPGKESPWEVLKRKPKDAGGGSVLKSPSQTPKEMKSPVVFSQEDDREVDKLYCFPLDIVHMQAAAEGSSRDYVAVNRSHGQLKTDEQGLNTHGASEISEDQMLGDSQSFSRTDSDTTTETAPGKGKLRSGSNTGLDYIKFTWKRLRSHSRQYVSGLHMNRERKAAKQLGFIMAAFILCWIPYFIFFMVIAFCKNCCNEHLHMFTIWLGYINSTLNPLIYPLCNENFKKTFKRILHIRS

Molecule: Cc1cncc(CN2CCC(=C3c4ccc(Cl)cc4CCc4cccnc43)CC2)c1 [Compound 1, rupatadine]
- time up to which plasma levels could be detected [1]: up to 12 h
- duration of antagonism of the histamine-induced flare response [2]: up to 72 h

- koff (human H1R): 0.022 ± 0.003 min^–1
- kon (human H1R): 3.7 ± 0.4 10^6 min^–1 M^–1
Molecule: (R)-5-(4-((4-Chlorophenyl)([4-^3H]phenyl)methyl)piperazin-1-yl)pentanoic Acid [[^3H]levocetirizine]

Molecule: O=C(O)COCCN1CCN([C@H](c2ccccc2)c2ccc(Cl)cc2)CC1 [levocetirizine]
- fold longer residence time at the H1R than mepyramine (H1R): 100 fold
